Measured values from PMC9865890, “N-Derivatives of (Z)-Methyl 3-(4-Oxo-2-thioxothiazolidin-5-ylidene)methyl)-1H-indole-2-carboxylates as Antimicrobial Agents—In Silico and In Vitro Evaluation” (Pharmaceuticals, 2023).
In brackets after ≈: the same amount, converted by molar mass. Read-outs that look alike come from different tables or passages of the source.

Tests used:
[1] = test system: Bacillus cereus (clinical isolate); assay: Antibacterial microdilution (MIC/MBC); assay type: cell-based; conditions: B.c. (B. cereus)
Description: (§1) The synthesized compounds (Table 1) were evaluated for their antibacterial activity against a panel of eight species using a microdilution method with ampicillin and streptomycin as reference drugs. […] The order of activity can be presented as: 8 > 11 > 2 > 1 > 12 > 3 > 17 > 7 > 5 > 13 > 14 > 16 > 9 > 4 = 6 > 15 > 10. […] Cloacae. […] The most sensitive bacteria appeared to be En. cloacae, while E. coli was the most resistant one, followed by M. flavus.
(§2) The following Gram-negative bacteria: Escherichia coli (ATCC 35210), Enterobacter cloacae (clinical isolate), Salmonella typhimurium (ATCC 13311), as well as Gram-positive bacteria: Listeria monocytogenes (NCTC 7973), Bacillus cereus (clinical isolate), and Staphylococcus aureus (ATCC 6538) were used. The organisms were obtained from the Mycological Laboratory, Department of Plant Physiology, Institute for Biological Research “Siniša Stankovic”, Belgrade, Serbia. The minimum inhibitory (MIC) and minimum bactericidal (MBC) concentrations were determined by the modified microdilution method, as previously reported.

[2] = test system: Escherichia coli (ATCC 35210); assay: Antibacterial microdilution (MIC/MBC); assay type: cell-based; conditions: E. coli
Description: as §1, §2

P. aeruginosa = assay: Antibacterial microdilution (MIC/MBC); assay type: cell-based; conditions: Pseudomonas aeruginosa, P.a. (P. aeruginosa); for MIC: read-out: MIC
Description: as §1, §2

M. flavus = assay: Antibacterial microdilution (MIC/MBC); assay type: cell-based; conditions: Micrococcus flavus; M.f. (M. flavus)
Description: as §1, §2

[3] = test system: Salmonella typhimurium (ATCC 13311); assay: Antibacterial microdilution (MIC/MBC); assay type: cell-based; conditions: S.t. (S. typhimurium)
Description: as §1, §2

[4] = test system: Staphylococcus aureus (ATCC 6538); assay: Antibacterial microdilution (MIC/MBC); assay type: cell-based; conditions: S.a. (S. aureus)
Description: as §1, §2

[5] = test system: Listeria monocytogenes (NCTC 7973); assay: Antibacterial microdilution (MIC/MBC); assay type: cell-based; conditions: Listeria monocytogenes, NCTC7973, L.m. (L. monocytogenes); for MIC: read-out: MIC
Description: as §1, §2

[6] = test system: Enterobacter cloacae (clinical isolate); assay: Antibacterial microdilution (MIC/MBC); assay type: cell-based; conditions: Enterobacter cloacae, En.cl (En. cloacae); for MIC: read-out: MIC
Description: as §1, §2

[7] = test system: Aspergillus fumigatus (ATCC 1022); assay: Antifungal bioassay (MIC/MFC); assay type: cell-based; conditions: ATCC1022, A.f. (A. fumigatus)
Description: (§3) For the antifungal bioassays, six fungi were used: […] The organisms were obtained from the Mycological Laboratory, Department of Plant Physiology, Institute for Biological Research “Siniša Stankovic”, Belgrade, Serbia. All experiments were performed in duplicate.

[8] = test system: Penicillium funiculosum (ATCC 36839); assay: Antifungal bioassay (MIC/MFC); assay type: cell-based; conditions: Talaromyces funiculosus, ATCC36839; P.f. (P. funiculosum)
Description: as §3

[9] = test system: Trichoderma viride (IAM 5061); assay: Antifungal bioassay (MIC/MFC); assay type: cell-based; conditions: T.v. (T. viride)
Description: as §3

[10] = test system: Aspergillus niger (ATCC 6275); assay: Antifungal bioassay (MIC/MFC); assay type: cell-based; conditions: ATCC6275, A.n. (A. niger)
Description: as §3

[11] = test system: Aspergillus versicolor (ATCC 11730); assay: Antifungal bioassay (MIC/MFC); assay type: cell-based; conditions: ATCC11730, A.v. (A. versicolor)
Description: as §3

A. ochraceus = assay: Antifungal bioassay (MIC/MFC); assay type: cell-based; conditions: A.o. (A. ochraceus)
Description: as §3

P. ochrochloron = assay: Antifungal bioassay (MIC/MFC); assay type: cell-based; conditions: for MIC: P.o. (P. ochrochloron; text: P. ochramensis); for MFC: P.o. (P. ochrochloron)
Description: as §3

[12] = test system: Penicillium verrucosum var. cyclopium (food isolate); assay: Antifungal bioassay (MIC/MFC); assay type: cell-based
Description: For the antifungal bioassays, six fungi were used: Aspergillus niger (ATCC 6275), Aspergillus fumigatus (ATCC 1022), Aspergillus versicolor (ATCC 11730), Penicillium funiculosum (ATCC 36839), Trichoderma viride (IAM 5061), and Penicillium verrucosum var. cyclopium (food isolate). The organisms were obtained from the Mycological Laboratory, Department of Plant Physiology, Institute for Biological Research “Siniša Stankovic”, Belgrade, Serbia. All experiments were performed in duplicate.

[13] = Escherichia coli, ATCC35210, read-out: MIC
[14] = Salmonella enterica, read-out: MIC
[15] = Staphylococcus aureus, ATCC6538
[16] = Staphylococcus aureus, ATCC6538, read-out: MIC
[17] = Trichoderma viride, IAM5061, read-out: MIC
[18] = Aspergillus ochraceus, read-out: MIC
[19] = Penicillium ochrochloron, read-out: MIC

SMILES | MBC ([1]; Bacillus cereus) | MIC ([1]; Bacillus cereus, read-out: MIC) | MBC ([2]; Escherichia coli, ATCC35210) | MIC [2, 13] | MBC (P. aeruginosa) | MIC (P. aeruginosa) | MBC (M. flavus) | MIC (M. flavus) | MBC ([3]; Salmonella enterica) | MIC [3, 14] | MBC [4, 15] | MIC [4, 16] | MBC [5] | MIC [5] | MBC [6] | MIC [6] | MFC [7] | MIC [7] | MFC [8] | MIC [8] | other results
COC(=O)c1[nH]c2ccccc2c1/C=C1\SC(=S)N(CCCCCC(=O)O)C1=O [Compound 1, (Z)-6-(5-((2-(methoxycarbonyl)-1H-indol-3-yl)methylene)-4-oxo-2-thioxothiazolidin-3-yl)hexanoic acid] | 30 ± 10 µg/mL (≈ 69.4 µM) | 15 µg/mL (≈ 34.7 µM) | 30 ± 10 µg/mL (≈ 69.4 µM) | 15 µg/mL (≈ 34.7 µM) | 60 ± 6 µg/mL (≈ 139 µM) | 22 ± 5 µg/mL (≈ 50.9 µM) | 30 ± 10 µg/mL (≈ 69.4 µM) | 22 ± 5 µg/mL (≈ 50.9 µM) | 30 ± 10 µg/mL (≈ 69.4 µM) | 15 µg/mL (≈ 34.7 µM) | 30 ± 10 µg/mL (≈ 69.4 µM) | 22 ± 5 µg/mL (≈ 50.9 µM) | 60 ± 6 µg/mL (≈ 139 µM) | 22 ± 4 µg/mL (≈ 50.9 µM) | 30 ± 10 µg/mL (≈ 69.4 µM) | 22 ± 5 µg/mL (≈ 50.9 µM) | 120 ± 40 µg/mL (≈ 277 µM) | 60 ± 6 µg/mL (≈ 139 µM) | 30 ± 10 µg/mL (≈ 69.4 µM) | 15 ± 3 µg/mL (≈ 34.7 µM) | MIC [1]: 15 ± 9 µg/mL (≈ 34.7 µM); MIC [2]: 15 ± 9 µg/mL (≈ 34.7 µM); MIC [3]: 15 ± 9 µg/mL (≈ 34.7 µM); MFC ([9]; Trichoderma viride, IAM5061): 30 ± 10 µg/mL (≈ 69.4 µM); MIC [9, 17]: 15 ± 3 µg/mL (≈ 34.7 µM); MFC [10]: 30 ± 10 µg/mL (≈ 69.4 µM); MIC [10]: 22 ± 5 µg/mL (≈ 50.9 µM); MFC [11]: 60 ± 6 µg/mL (≈ 139 µM); MIC [11]: 30 ± 10 µg/mL (≈ 69.4 µM); MIC (A. ochraceus): 8 ± 0.6 µg/mL (≈ 18.5 µM); MFC (A. ochraceus; Aspergillus ochraceus): 15 ± 3 µg/mL (≈ 34.7 µM); MIC (A. ochraceus; [18]): 8 µg/mL (≈ 18.5 µM); MIC (P. ochrochloron): 4 ± 1 µg/mL (≈ 9.25 µM); MFC (P. ochrochloron; Penicillium ochrochloron): 8 ± 0.6 µg/mL (≈ 18.5 µM); MIC (P. ochrochloron; [19]): 4 µg/mL (≈ 9.25 µM); MFC [12]: 60 ± 6 µg/mL (≈ 139 µM); MIC [12]: 30 ± 10 µg/mL (≈ 69.4 µM); melting point: 135 to 138 °C
COC(=O)c1[nH]c2ccccc2c1/C=C1\SC(=S)N(c2ccc(C(=O)O)cc2)C1=O [Compound 2, (Z)-4-(5-((2-(methoxycarbonyl)-1H-indol-3-yl)methylene)-4-oxo-2-thioxothiazolidin-3-yl)benzoic acid] | 30 ± 10 µg/mL (≈ 68.4 µM) | 15 µg/mL (≈ 34.2 µM) | 30 ± 10 µg/mL (≈ 68.4 µM) | 22 ± 5 µg/mL (≈ 50.2 µM) | 60 ± 6 µg/mL (≈ 137 µM) | 30 ± 10 µg/mL (≈ 68.4 µM) | 30 ± 10 µg/mL (≈ 68.4 µM) | 22 ± 5 µg/mL (≈ 50.2 µM) | 30 ± 10 µg/mL (≈ 68.4 µM) | 22 ± 5 µg/mL (≈ 50.2 µM) | 30 ± 10 µg/mL (≈ 68.4 µM) | 15 µg/mL (≈ 34.2 µM) | 60 ± 6 µg/mL (≈ 137 µM) | 30 ± 10 µg/mL (≈ 68.4 µM) | 30 ± 10 µg/mL (≈ 68.4 µM) | 15 ± 9 µg/mL (≈ 34.2 µM) | 60 ± 6 µg/mL (≈ 137 µM) | 30 ± 10 µg/mL (≈ 68.4 µM) | 30 ± 10 µg/mL (≈ 68.4 µM) | 15 ± 3 µg/mL (≈ 34.2 µM) | MIC [1]: 15 ± 9 µg/mL (≈ 34.2 µM); MIC [4]: 15 ± 9 µg/mL (≈ 34.2 µM); MFC ([9]; Trichoderma viride, IAM5061): 15 ± 3 µg/mL (≈ 34.2 µM); MIC [9, 17]: 8 ± 0.6 µg/mL (≈ 18.2 µM); MFC [10]: 30 ± 10 µg/mL (≈ 68.4 µM); MIC [10]: 22 ± 5 µg/mL (≈ 50.2 µM); MFC [11]: 30 ± 10 µg/mL (≈ 68.4 µM); MIC [11]: 15 ± 3 µg/mL (≈ 34.2 µM); MFC (A. ochraceus; Aspergillus ochraceus): 15 ± 3 µg/mL (≈ 34.2 µM); MFC (P. ochrochloron; Penicillium ochrochloron): 30 ± 10 µg/mL (≈ 68.4 µM); MIC (P. ochrochloron; [19]): 15 ± 3 µg/mL (≈ 34.2 µM); MFC [12]: 60 ± 6 µg/mL (≈ 137 µM); MIC [12]: 30 ± 10 µg/mL (≈ 68.4 µM); melting point: 294 to 295 °C
COC(=O)c1[nH]c2ccccc2c1/C=C1\SC(=S)N(N2CCOCC2)C1=O [Compound 6, (Z)-methyl 3-((3-morpholino-4-oxo-2-thioxothiazolidin-5-ylidene)methyl)-1H-indole-2-carboxylate] | 60 ± 6 µg/mL (≈ 149 µM) | 30 ± 10 µg/mL (≈ 74.4 µM) | 120 ± 10 µg/mL (≈ 297 µM) | 60 ± 6 µg/mL (≈ 149 µM) | 60 ± 6 µg/mL (≈ 149 µM) | 30 ± 10 µg/mL (≈ 74.4 µM) | 60 ± 6 µg/mL (≈ 149 µM) | 45 ± 3 µg/mL (≈ 112 µM) | 60 ± 6 µg/mL (≈ 149 µM) | 30 ± 10 µg/mL (≈ 74.4 µM) | 30 ± 10 µg/mL (≈ 74.4 µM) | 15 µg/mL (≈ 37.2 µM) | 60 ± 6 µg/mL (≈ 149 µM) | 30 ± 10 µg/mL (≈ 74.4 µM) | 30 ± 10 µg/mL (≈ 74.4 µM) | 15 ± 9 µg/mL (≈ 37.2 µM) | 120 ± 40 µg/mL (≈ 297 µM) | 60 ± 6 µg/mL (≈ 149 µM) | 30 ± 10 µg/mL (≈ 74.4 µM) | 15 ± 3 µg/mL (≈ 37.2 µM) | MIC [4]: 15 ± 9 µg/mL (≈ 37.2 µM); MIC [9]: 8 ± 0.6 µg/mL (≈ 19.8 µM); MFC ([9]; Trichoderma viride, IAM5061): 15 ± 3 µg/mL (≈ 37.2 µM); MIC [9, 17]: 8 µg/mL (≈ 19.8 µM); MFC [11]: 15 ± 3 µg/mL (≈ 37.2 µM); MIC [11]: 8 ± 0.6 µg/mL (≈ 19.8 µM); MFC (A. ochraceus; Aspergillus ochraceus): 15 ± 3 µg/mL (≈ 37.2 µM); MIC (A. ochraceus; [18]): 8 ± 0.6 µg/mL (≈ 19.8 µM); MIC (P. ochrochloron): 8 ± 0.6 µg/mL (≈ 19.8 µM); MFC (P. ochrochloron; Penicillium ochrochloron): 15 ± 3 µg/mL (≈ 37.2 µM); MIC (P. ochrochloron; [19]): 8 µg/mL (≈ 19.8 µM); MFC [12]: 30 ± 10 µg/mL (≈ 74.4 µM); MIC [12]: 15 ± 3 µg/mL (≈ 37.2 µM); melting point: 278 to 280 °C
